{"source": "paper PMC9973354", "about": "(mBio, 2022)", "key": {"[1]": {"test_system": "PA14 ΔfpvA ΔfpvB pHERD20T-fpvA", "assay": "Checkerboard assay TS and siderophores, FpvA expressed", "type": "cell-based, Pseudomonas aeruginosa", "conditions": "10:90 + 2% arabinose", "description": "We investigated this hypothesis by treating the ΔfpvA ΔfpvB mutant complemented with fpvA or fpvB with TS and pyoverdine-Fe^3+. If pyoverdine competes with TS for the same binding site in the transporter, a reduction in TS susceptibility would be expected, as competition would decrease entry of the antibiotic into the cell. TS susceptibility decreased >8-fold with increasing concentrations of pyoverdine-Fe^3+ when FpvA was expressed (see Fig. S2A in the supplemental material).\nSupplementary file : FIG S2 Checkerboard assays of the PA14 ΔfpvA ΔfpvB strain complemented with fpvA and fpvB in trans with TS and siderophores. […] Checkerboards of the PA14 ΔfpvA ΔfpvB pHERD20T-fpvB strain with TS and enterobactin (G), ferrioxamine E (H), and arthrobactin (I). Results are averaged from three independent biological replicates. Cells in the assay were grown in 10:90 + 2% arabinose. Download FIG S2, EPS file, 2.2 MB.\nCheckerboards (8 rows by 8 columns) were conducted as previously described in a 96-well plate (Nunc) ([13], [14]). TS at 75× the final concentration dissolved in DMSO was added in columns from bottom to top in increasing concentrations. Siderophores at 75× the final concentration dissolved in DSMO were added from in rows from left to right in increasing concentrations. Four columns were used for vehicle controls (DMSO) and sterile controls. […] Plates were sealed to prevent evaporation and incubated at 37°C overnight in a shaking incubator (200 rpm). The next day, the OD600 was determined with a plate reader (Thermo Scientific) and normalized to percent of growth of the vehicle control (DMSO) after subtracting the OD600 from blank media."}, "FpvB R648C": {"biological_target": "T1, FpvB R648C (Pseudomonas aeruginosa, UniProt A0A0H2ZFZ5, R648C)", "T1 sequence (A0A0H2ZFZ5 23-802 R648C)": "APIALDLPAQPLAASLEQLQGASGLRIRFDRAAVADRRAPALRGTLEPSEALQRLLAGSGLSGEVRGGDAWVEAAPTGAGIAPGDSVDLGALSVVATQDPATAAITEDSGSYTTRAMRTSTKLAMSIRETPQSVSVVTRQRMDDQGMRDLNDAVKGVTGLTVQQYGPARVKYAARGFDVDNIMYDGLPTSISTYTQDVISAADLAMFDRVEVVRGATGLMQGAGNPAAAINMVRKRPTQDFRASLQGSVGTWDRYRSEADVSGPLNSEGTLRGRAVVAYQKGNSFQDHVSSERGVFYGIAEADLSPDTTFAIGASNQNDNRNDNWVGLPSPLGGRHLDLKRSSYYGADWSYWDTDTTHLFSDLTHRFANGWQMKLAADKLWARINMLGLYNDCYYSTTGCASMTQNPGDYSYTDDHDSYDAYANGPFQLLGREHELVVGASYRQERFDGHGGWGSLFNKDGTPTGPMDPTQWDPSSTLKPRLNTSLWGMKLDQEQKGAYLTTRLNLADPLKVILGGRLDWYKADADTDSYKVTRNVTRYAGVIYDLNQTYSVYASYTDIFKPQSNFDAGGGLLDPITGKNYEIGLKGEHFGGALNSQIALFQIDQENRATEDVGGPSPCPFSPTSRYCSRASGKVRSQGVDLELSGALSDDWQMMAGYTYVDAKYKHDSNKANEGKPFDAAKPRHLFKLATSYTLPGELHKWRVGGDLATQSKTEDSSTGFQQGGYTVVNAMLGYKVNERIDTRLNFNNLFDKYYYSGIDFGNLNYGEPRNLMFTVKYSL", "assay": "Whole-cell fluorescence quenching, FpvB R648C in ΔfpvA ΔfpvB", "type": "binding", "description": "To determine the affinity of the siderophores for FpvA and FpvB, we adapted the method from Chakravorty et al. to generate a whole-cell sensor where fluorescence quenching serves as an indicator of ligand interaction ([31]). Siderophore binding triggers conformational changes at the extracellular loops of the TBDT (Fig. 3A). Cys substitutions were introduced at the loops and labeled with a fluorescent maleimide dye. When a ligand binds the transporter, the loops fold inward toward the lumen of the barrel, and changes in the chemical environment surrounding the fluorophore lead to quenching ([31], [32]). Fluorescence recovery occurs once the siderophore is taken up and the loop returns to its original conformation.\nCells were cultured overnight in LB with carbenicillin (200 μg/mL) at 37°C with shaking at 200 rpm. Cells were subcultured (1:200 dilution) in 10:90 plus 2% arabinose for 4 h without carbenicillin at 37°C with shaking at 200 rpm. […] Excess dye was quenched with 1 mM dithiothreitol (DTT) (Sigma) to stop the reaction. Cells were washed 3× with PBS. For fluorescence recovery assays, cells were incubated with 1× PBS plus 0.4% glucose at 37°C with shaking at 200 rpm. Glucose was prepared as a 20% stock (wt/vol) in 1× PBS and filter sterilized. Cells were spun down and washed 3× with 1× PBS and resuspended in 1× PBS for quenching assays and 1× PBS plus 0.4% glucose for fluorescence recovery assays.\nFor fluorescence quenching and recovery assays, cells were diluted to an OD600 of 0.1 for both types of assays, and 148 μL was added into wells of a 96-well black plate (Corning). Fluorescence was recorded for 5 min at 1-min intervals at 37°C (BioTek Neo; excitation, 494 nm; emission, 520 nm). After 5 min, 2 μL of each serial dilution for ferrioxamine-Fe^3+, ferrichrome-Fe^3+, and pyoverdine-Fe^3+ or DMSO for vehicle controls was added to each well. Fluorescence was recorded immediately for quenching assays and for 1 h at 1-min intervals for fluorescence recovery assays. Background fluorescence was subtracted from all fluorescence readings and 1-F/F0 was used to calculate the degree of quenching, where F0 is the initial fluorescence. Kd was calculated using GraphPad Prism using a one-site specific binding model or a two-site model. For fluorescence recovery assays, background was subtracted from all fluorescence readings and F/F0 expressed as a percent of control was plotted versus time."}}, "note": "Starred links: 1 amine or outer side, 2 acyl side, 3 side chain; linkers in the order of their positions; H or OH if unused. Positions of bridges follow the written chain, without caps; N, C: chain ends. Non-standard residues stand in square brackets, D forms with d. Residues, ends and D or L forms follow the SMILES beside them. ξ: configuration not given here. X1 = O=C([C@@H]1CCN=C2C(N[*:1])=Cc3cc(O)c(O)cc3N21)[*:2]; ξOrn(N(OH)CHO) = NC(CCCN(O)C=O)C(=O)O; Suc = O=C(CCC(=O)[*:2])[*:1]; ξK = NCCCCC(N)C(=O)O; ξS = NC(CO)C(=O)O"}
{"smiles": "CC(=O)N(O)CCCCCNC(=O)CCC(=O)N(O)CCCCCNC(=O)CCC(=O)N(O)CCCCCN", "note": "[ferrioxamine B]", "values": [{"measurement": "effect of siderophore on TS susceptibility", "setting": "[1]", "value": "None of those siderophores reduced TS susceptibility"}]}
{"smiles": "NCCCCC(NC(=O)C(CO)NC(=O)[C@@H]1CCN=C2C(NC(=O)CCC(=O)O)=Cc3cc(O)c(O)cc3N21)C(=O)NCC(=O)NC(CCCN(O)C=O)C(=O)NC1CCCCNC(=O)C(CO)NC(=O)C(CCCN(O)C=O)NC1=O", "note": "(stereo partly drawn) [pyoverdine] (Suc-[X1][ξS][ξK]G[ξOrn(N(OH)CHO)][ξK][ξOrn(N(OH)CHO)][ξS]; lactam 6-C)", "values": [{"measurement": "Kd for FpvB relative to ferrichrome", "setting": "FpvB R648C; greater than ferrichrome", "value": 200, "unit": "fold"}, {"measurement": "Kd for FpvB relative to ferrioxamine B", "setting": "FpvB R648C; greater than ferrioxamine B", "value": 20, "unit": "fold"}]}
